{"source": "paper PMC8840689", "about": "“Bacillus cereus Toxin Repertoire: Diversity of (Iso)cereulide(s)” (Molecules, 2022)", "key": {"[1]": {"system": "HEp-2 cells", "type": "cell-based", "description": "(§1) Determination of EC50 of cereulide (1) and isocereulides H–N (2–8) via HEp-2 cell assay. The testing principle of the HEp-2 cell assay is based on the uncoupling of ATP synthesis, effectuated by supplemented ionophores, resulting in a facilitated ion influx into the mitochondria, thus disrupting the membrane potential. As a result, the 50% effective concentration (EC50) gives the amount of toxin required to inactivate half of the viable cells.\nHEp-2 cell assay: The cytotoxic activity of 1–8 was determined by quantifying their EC50 using HEp-2 cells, as described previously. In a 96-well microtiter plate assay, a 2% ethanolic minimum essential medium (MEM-Earle’s), containing 2% FCS, 1% sodium pyruvate and 0.4% penicillin-streptomycin (v/v each), was provided to perform stepwise dilution of each toxin solution. As an overall toxicity reference and cell control, the structurally related toxin valinomycin was used analogously, in a range of approx. 2–500 ng/mL. The composition of each toxin sample is listed in the Supplementary Materials, Table S2. The HEp-2 cells were freed from their medium and washed with 5 mL of PBS twice and 5 mL of 0.05% Trypsin/EDTA solution was added. After incubation (8 min, 37 °C, 5% CO2), 10 mL of MEM was added and the cells were resuspended, transferred to a falcon tube and centrifuged (RT, 7 min, 700 rpm). The supernatant was discarded, the cell pellet was suspended in 5 mL of MEM and the cell count was determined via Trypan blue. Finally, the cell count was set to 6.7 × 10^5 cells/mL MEM (1 × 10^5 cells/well); a total of 150 µL of this solution was spiked to each well and the plate was incubated (48 h, 37 °C, 5% CO2). After removing 100 µL of the medium, 10 µL of the cell proliferation reagent WST (cell counting kit) was added and shaken for 1 min (400 rpm) and the plate was incubated (20 min, 37 °C, 5% CO2). To determine cell viability, the extinction at 450 nm/620 nm (TECAN infinite F200) was measured. The respective EC50 values for each sample were then calculated from the obtained dose-response curves and the corresponding applied sample dilution and concentration.\nAn aliquot of 2 µL of the respective samples with ^13C6-cereulide as an internal standard (100 ng/mL) was applied for the quantitation of 1–8 in the samples, later applied in the HEp-2 cell assay according to the literature, performed on a Waters Xevo TQ-S mass spectrometer (Waters) coupled to an Acquity UPLC i-class core system (Waters) with a binary solvent manager, sample manager and column oven. The system was operated with MassLynx 4.1 SCN 813 Software (Waters) and data processing and analysis were performed with TargetLynx (Waters). The recently reported quantitation method for cereulide and isocereulides A-G [33] was extended by implementing the ammonium adducts of 2–8 using the multiple reaction monitoring mode with the following parameters. Compounds 2, 3 and 7 m/z 1156.6 → qualifier m/z 172.2, 314.2; quantifier m/z 357.2. Compound 4 m/z 1142.6 → qualifier m/z 172.2, 314.2; quantifier m/z 357.2. Compound 5 m/z 1184.6 → qualifier m/z 172.2, 314.2; quantifier m/z 357.2. Compounds 6 and 8 m/z 1186.6 → qualifier m/z 172.2, 314.2; quantifier m/z 357.2. The calibration for the quantitation of the analytes consisted of mixtures of cereulide (0.1–1000 ng/mL in EtOH) and ^13C6-cereulide (100 ng/mL) as an internal standard. Mixtures were prepared from stock solutions and analyzed in triplicate by UPLC-MS/MS. The calibration curve was obtained by plotting the peak area ratios of analytes to internal standard against the concentration ratios of analyte to internal standard for each solution and applying linear regression (origin excluded) to give the equation y=2.5174x+0.0061 with R^2=0.9998 . For 1 and ^13C6-cereulide, the quantifier mass transitions were selected as m/z 1170.7 → m/z 357.2 and m/z 1176.7 → m/z 358.2, respectively. All mass spectrometric and chromatographic parameters were used as reported."}, "[2]": {"test": "UPLC retention on RP-BEH-C18 column (analyte hydrophobicity)", "type": "physicochemical", "conditions": "for RT (retention time on RP-BEH-C18 UPLC column): chromatographic, BEH-C18 2.1 × 150 mm, 1.7 µm, 0.4 mL/min, 45 °C, A aqueous HCOOH (0.1%), B MeCN with HCOOH (0.1%), 93% B to 100% B in 4 min, ESI-TOF-MS, uncalibrated, link to hydrophobicity only implicit", "experimental": "Purification of cereulide (1) and isocereulides H–N (2–8): The purification of 1–8 from the reduced ethanol extract was performed according to the literature. In brief, the extract was diluted with H2O (1:10) for better retention of the target analytes on the column material and pre-fractionated via C18 SPE cartridges (60 mL, 10 g; Chromabond, Macherey-Nagel, Düren, Germany). All obtained methanolic fractions were combined and the solvent was reduced to approx. 150 mL using a rotary evaporator and stored at −20 °C until further use for compound isolation. The sample material was separated via semi-preparative HPLC into 10 fractions (Supplementary Materials, Figure S1), for which the respective eluates were combined and their solvents removed through a rotary evaporator. The obtained HPLC fractions were screened for cereulide (1) and its isocereulides using a UPLC-TOF-MS system Synapt G2-S (Waters, Manchester, UK) in the positive electrospray mode equipped with a 2.1 × 150 mm, 1.7 µm BEH-C18 column (Waters, Manchester, UK) at a flow rate of 0.4 mL/min at 45 °C using aqueous HCOOH (0.1%) as solvent A and MeCN with HCOOH (0.1%) as solvent B. Elution was performed by starting at 93% B, increasing to 100% B in 4 min, holding at 100% B for 2 min, followed by decreasing to 93% in 0.1 min and holding at 93% B for 0.9 min."}, "[3]": {"conditions": "cited from earlier work", "description": ". Cereulide (1) is composed of 12 alternatingly placed α-amino and α-hydroxy acids thought to form the three-time circularly repeating tetradepsipeptide unit D-O-Leu-D-Ala-L-O-Val-L-Val (Figure 1), leading to its characteristic dodecadepsipeptide structure in a rectangular cylindrical shape. Because of its uniqu ..."}, "[4]": {"system": "5–HT3 receptors", "conditions": "lower concentrations; stimulation of the vagus afferent by binding to 5–HT3 receptors in the duodenum; cited from earlier work", "description": "(§2) Similar to the antibiotic valinomycin, cereulide unfolds its toxicity potential due to a high affinity for complex formation with alkali metal ions (Li^+, Na^+ and K^+) and ammonium ions, resulting in its biological function as a strong K^+ ionophore and as a K^+ transporter, resulting in cell membrane depolarization."}, "[5]": {"system": "blood–brain barrier", "conditions": "porcine model; cited from earlier work", "description": "as §2"}, "[6]": {"conditions": "cited from earlier work", "description": "as §1", "remark": "listed apart in the source"}, "[7]": {"system": "HEp-2 cells", "conditions": "cited from earlier work", "description": "At this point, we can only speculate about the magnitude of the impact that isocereulides have on the overall toxicity of (iso)cereulide-containing B. cereus cell cultures."}}}
{"compound": "CC(C)C[C@H]1OC(=O)[C@H](C(C)C)NC(=O)[C@H](C(C)C)OC(=O)[C@@H](C)NC(=O)[C@@H](CC(C)C)OC(=O)[C@H](C(C)C)NC(=O)[C@H](C(C)C)OC(=O)[C@@H](C)NC(=O)[C@@H](CC(C)C)OC(=O)[C@H](C(C)C)NC(=O)[C@H](C(C)C)OC(=O)[C@@H](C)NC1=O", "note": "[Cereulide, cereulide]", "values": [{"measurement": "absolute EC50", "setting": "[1]; 48 h", "value": 2.44, "unit": "ng/mL"}, {"measurement": "toxic effect relative to valinomycin at an equally applied concentration", "setting": "[1]; HEp-2 cells, from EC50 values, data not shown", "value": 13.7, "unit": "times"}, {"measurement": "RT (retention time on RP-BEH-C18 UPLC column)", "setting": "[2]", "value": 4.25, "unit": "min"}, {"measurement": "stability to temperatures, pH values and enzymes", "setting": "[3]", "value": "inert to a wide range of temperatures, pH values and enzymes"}, {"measurement": "emetic effect", "setting": "[4]", "value": "provoke vomiting"}, {"measurement": "crossing of the blood–brain barrier", "setting": "[5]", "value": "can cross the blood–brain barrier"}, {"measurement": "increased toxicity compared to valinomycin", "setting": "[6]", "value": "approx. 15 fold"}]}
{"compound": "CC(C)C[C@H]1OC(=O)[C@H](C(C)C)NC(=O)[C@H](C(C)C)OC(=O)CNC(=O)[C@@H](CC(C)C)OC(=O)[C@H](C(C)C)NC(=O)[C@H](C(C)C)OC(=O)[C@@H](C)NC(=O)[C@@H](CC(C)C)OC(=O)[C@H](C(C)C)NC(=O)[C@H](C(C)C)OC(=O)[C@@H](C)NC1=O", "note": "[Isocereulide H, isocereulide H]", "values": [{"measurement": "absolute EC50", "setting": "[1]; 48 h", "value": 6.62, "unit": "ng/mL"}, {"measurement": "decreased toxicity effect on HEp-2 cells compared to 1", "setting": "[1]; HEp-2 cells, 48 h", "value": 63, "unit": "%"}, {"measurement": "RT (retention time on RP-BEH-C18 UPLC column)", "setting": "[2]", "value": 2.88, "unit": "min"}]}
{"compound": "CC[C@@H]1NC(=O)[C@H](C(C)C)OC(=O)[C@@H](C)NC(=O)[C@@H](CC(C)C)OC(=O)[C@H](C(C)C)NC(=O)[C@H](C(C)C)OC(=O)[C@@H](C)NC(=O)[C@@H](CC(C)C)OC(=O)[C@H](C(C)C)NC(=O)[C@H](C(C)C)OC(=O)[C@@H](C)NC(=O)[C@@H](CC(C)C)OC1=O", "note": "[Isocereulide I, isocereulide I]", "values": [{"measurement": "absolute EC50", "setting": "[1]; 48 h", "value": 1.75, "unit": "ng/mL"}, {"measurement": "toxicity relative to cereulide (1) (reciprocal EC50, cereulide set to 1)", "setting": "[1]; HEp-2 cells, 48 h", "value": 1.4, "unit": "fold"}, {"measurement": "hydrophobicity compared with 1 (in words)", "setting": "[2]", "value": "slightly more hdrophilic"}, {"measurement": "RT (retention time on RP-BEH-C18 UPLC column)", "setting": "[2]", "value": 3.40, "unit": "min"}]}
{"compound": "D-O-Leu-D-Ala-L-O-Val-L-Val-D-O-Leu-Gly-L-O-Val-L-Val-D-O-Ile-D-Ala-L-O-Val-L-Val (lariat or depsi) [Isocereulide M, isocereulide M, cereulide variant, D-Ala by Gly and D-O-Leu by D-O-Ile]", "values": [{"measurement": "RT (retention time on RP-BEH-C18 UPLC column)", "setting": "[2]", "value": 3.07, "unit": "min"}]}
{"compound": "isocereulide A", "values": [{"measurement": "RT (retention time on RP-BEH-C18 UPLC column)", "setting": "[2]", "value": 4.83, "unit": "min"}, {"measurement": "higher toxicity than cereulide", "setting": "[7]", "value": "approximately 8 fold"}]}
{"compound": "isocereulide B", "values": [{"measurement": "RT (retention time on RP-BEH-C18 UPLC column)", "setting": "[2]", "value": 3.83, "unit": "min"}]}
{"compound": "isocereulide C", "values": [{"measurement": "RT (retention time on RP-BEH-C18 UPLC column)", "setting": "[2]", "value": 2.52, "unit": "min"}]}
{"compound": "isocereulide D", "values": [{"measurement": "RT (retention time on RP-BEH-C18 UPLC column)", "setting": "[2]", "value": 2.88, "unit": "min"}]}
{"compound": "isocereulide E", "values": [{"measurement": "RT (retention time on RP-BEH-C18 UPLC column)", "setting": "[2]", "value": 3.83, "unit": "min"}]}
{"compound": "isocereulide F", "values": [{"measurement": "RT (retention time on RP-BEH-C18 UPLC column)", "setting": "[2]", "value": 5.00, "unit": "min"}]}
{"compound": "isocereulide G", "values": [{"measurement": "RT (retention time on RP-BEH-C18 UPLC column)", "setting": "[2]", "value": 4.56, "unit": "min"}]}
{"compound": "isocereulide J", "values": [{"measurement": "RT (retention time on RP-BEH-C18 UPLC column)", "setting": "[2]", "value": 3.57, "unit": "min"}]}
{"compound": "isocereulide K", "values": [{"measurement": "cytotoxicity compared to 1", "setting": "[1]; HEp-2 cells, 48 h", "value": 69, "unit": "%"}, {"measurement": "hydrophobicity compared with 1 (in words)", "setting": "[2]", "value": "more hydrophobic than 1"}, {"measurement": "RT (retention time on RP-BEH-C18 UPLC column)", "setting": "[2]", "value": 4.59, "unit": "min"}]}
{"compound": "isocereulide L", "values": [{"measurement": "RT (retention time on RP-BEH-C18 UPLC column)", "setting": "[2]", "value": 2.76, "unit": "min"}]}
{"compound": "isocereulide N", "values": [{"measurement": "RT (retention time on RP-BEH-C18 UPLC column)", "setting": "[2]", "value": 2.76, "unit": "min"}]}
